Laboratory results from patent publication US10513511B2, “Aqueous suspension formulation comprising 4-(4-(4-(((3R,5R)-5-((1H-1,2,4-triazol-1-yl)methyl)-5-(2,4-difluoro-phenyl)tetrahydrofuran-3-yl)methoxy)-3-methylphenyl) or a pharmaceutically acceptable salt thereof” (PULMOCIDE LIMITED, priority 2015, dated 2019).
Converted amounts (≈) assume the structure as drawn.

Legend:
BEAS2B cells = assay: Cell viability: resazurin assay; type: cell-based; conditions: at concentrations indicated in Table 4
Description: BEAS2B cells were seeded in 384-well plates (100 μL; 3000/well/; BD Falcon, Catalogue No 353962) in RPMI-LHC8 (RPMI-1640 and LHC8 media combined in equal proportions) one day before experimentation. For cell-free control wells, RPMI-LHC8 (100 μL) was added. Test compounds (0.5 μL of a DMSO solution) were added to give a final DMSO concentration of 0.5% using an Integra VIAFLO 96 (Integra, Zizers, Switzerland). BEAS2B cells were incubated with each test compound for 1 day (37° C./5% CO2 in RPMI-LHC8). After addition of resazurin stock solution (5 μL, 0.04%) the plates were incubated for a further 4 hr (37° C./5% CO2). The fluorescence of each well at 545 nm (excitation) and 590 nm (emission) was determined using a multi-scanner (Clariostar: BMG Labtech). The percentage loss of cell viability was calculated for each well relative to vehicle (0.5% DMSO) treatment. Where appropriate, a CC50 value was calculated from the concentration-response curve generated from the concentration-response curve for each test compound.

[1] = tested on: Cladosporium herbarum NCPF2564; assay: Fungus panel screening, CLSI broth microdilution; type: cell-based
Description: Fungus panel screening was conducted by Eurofins Panlabs Inc. The MIC and MIC50 values of the test articles were determined following the guidelines of the CLSI: broth microdilution methods for yeast (CLSI M27-A2), (CLSI, 2002) and for filamentous fungi (CLSI M38-A), (CLSI, 2008).

TNFα = assay: Serum TNFα in Aspergillus fumigatus infected, immunocompromised, neutropenic mice; type: in vivo, A/J mice; conditions: for TNFα in serum, % Inhibition / Conc of Biomarkers, TNFα in serum: therapeutic; for Conc of Biomarkers, TNFα in serum: mean ± SEM, N = 6
Description: Aspergillus fumigatus (ATCC 13073 [strain: NIH 5233], American Type Culture Collection, Manassas, Va., USA) was grown on Malt agar (Nissui Pharmaceutical, Tokyo, Japan) plates for 6-7 days at RT (24±1° C.). Spores were aseptically dislodged from the agar plates and suspended in sterile distilled water with 0.05% Tween 80 and 0.1% agar. On the day of infection, spore counts were assessed by haemocytometer and the inoculum was adjusted to obtain a concentration of 1.67×10^8 spores mL^−1 of physiological saline. […] On day 0, animals were infected with the spore suspension (30 μL intra-nasally).
Test substances were administered intra-nasally (35 μL of a suspension (0.0032-10.0 mg/mL of drug substance in physiological saline) once daily, on days 1, 2 and 3 only (thereby representing a therapeutic treatment regimen). For extended prophylactic treatment, test compounds (35 μL of a suspension of 0.0032 or 0.016 mg/mL in physiological saline) were administered intra-nasally once daily for seven days. One group was dosed 30 min before infection on day 0 but not subsequently, while a second group was further dosed on days 1, 2 and 3 after infection. The effects of these treatment paradigms were compared with those obtained when treatment was restricted in other groups to either one day or 30 min before inoculation and then on days 1, 2 and 3 post infection in both cases. In a final group, dosing was limited still further with animals dosed twice, one day and 30 min before infection only.
Animal body weights were monitored daily and at 6 hr after the last dose of drug was administered on day 3, the animals were anesthetised, the tracheas cannulated and BALF blood and lung tissue were collected. The levels of IL-6 and TNFα in serum were determined using Quantikine® mouse IL-6 or TNF-α ELISA kit (R&D systems, Inc., Minneapolis, Minn., USA) respectively. Aspergillus GM in serum was determination using Platelia GM-EIA kits (Bio-Rad Laboratories, Redmond, Wash., USA). Cut-off index (COI) was calculated by the formula: Cut-off index=OD in sample/OD in cut-off control provided in kit. For tissue fungal load assays, 100 mg of lung tissue was removed aseptically and homogenized in 0.2 mL of 0.1% agar in sterile distilled water. Serially diluted lung homogenates were plated on Malt agar plates (50 μL/plate), and incubated at 24±1° C. for 72 to 96 h. The colonies of A. fumigatus on each plate were counted and the fungal titre presented herein as CFUs per gram of lung tissue.

Compound: Cc1cc(N2CCN(c3ccc(C(=O)N[C@H]4CCCC[C@@H]4O)cc3)CC2)ccc1OC[C@@H]1CO[C@@](Cn2cncn2)(c2ccc(F)cc2F)C1 [Compound (Ia), 4-(4-(4-(((3R,5R)-5-((1H-1,2,4-triazol-1-yl)methyl)-5-(2,4-difluorophenyl)tetrahydrofuran-3-yl)methoxy)-3-methylphenyl)piperazin-1-yl)-N-((1S,2S)-2-hydroxycyclohexyl) benzamide]
- effect on the viability of BEAS2B bronchial epithelial cells (BEAS2B cells): no or little effect
- MIC50 ([1]; 50% inhibition by visual inspection (CLSI)): 0.016 µg/mL (≈ 0.0233 µM)
- MIC ([1]; 100% inhibition by visual inspection (CLSI), read-out: MIC100): 0.016 µg/mL (≈ 0.0233 µM)
- TNFα in serum, % Inhibition (TNFα; Drug Conc 3.2 μg/mL): 20%
- Conc of Biomarkers, TNFα in serum (TNFα; Drug Conc 3.2 μg/mL): 28.1 ± 13.8 pg/mL
- TNFα in serum, % Inhibition (TNFα; Drug Conc 16 μg/mL): 38%
- Conc of Biomarkers, TNFα in serum (TNFα; Drug Conc 16 μg/mL): 21.8 ± 14.6 pg/mL
- TNFα in serum, % Inhibition (TNFα; Drug Conc 80 μg/mL): 87%
- Conc of Biomarkers, TNFα in serum (TNFα; Drug Conc 80 μg/mL): 4.7 ± 1.0 pg/mL
- ID50 Values for biomarkers indicated, TNFα (TNFα; serum, title: Therapeutic Treatment): 0.027 mg/mL
